One data set concerns CF-1 male albino mice. The data set can be described thus: Maximal Electroshock Test (MES). Format: in vivo. The following applies: oral; for MES Activity (in words): time not stated. The protocol: Anticonvulsant activity was determined using the MES test, run according to the procedure described in detail below. Swinyard E A, Woodhead J H, White H S, Franklin M R. Experimental selection, quantification, and evaluation of anticonvulsants. In Levy R H, et al., eds. Antiepileptic Drugs. 3rd ed. New York: Raven Press, 1989:85-102
CF-1 male albino mice (25-35 g) were fasted for 16 hours before testing. Mice were randomly selected into control and test groups, with the animals dosed with vehicle or test compound, at varying concentrations, respectively. On the study date, at 30 minutes prior to shock, the mice were orally dosed with vehicle (0.5% methylcellulose) or test compound (100-300 mg/kg). Seizures were induced by trans-corneal electric shock using a 60-Hz alternating current, 50 mA, delivered for 0.2 sec. The mice in the test groups were subjected to electrical stimulus at time intervals between 15 minutes and 4 hours following administration of test compound. […] The test was complete when the entire course of the convulsion has been observed (typically, less than 1 minute after electrical stimulation), and the mice were then immediately euthanized by carbon dioxide inhalation.
Abolition of the full body tonic extensor component of the seizure was taken as the endpoint of the test. […] The ED50 value of the test compound (calculated when appropriate) was the calculated dose required to block the hind limb tonic-extensor component of the MES-induced seizure in 50% of the rodents tested. A probit analysis was used to calculate the ED50 and 95% fiducial limits (FL).
Representative compounds of the present invention were tested according to the procedure described above, with results as listed in Table 4 below. Results are listed as number of mice with full body tonic extension prevented/total number of mice tested @ time (at a given test compound dosage level).

The test system of the next data set is carbonic anhydrase. Conditions: background statement, no assay details; cited from earlier work.

Consider `NS(=O)(=O)OC[C@H]1COc2cc(Cl)ccc2O1` (stereo in doubt) [ID No. 12, Sulfamic acid, 6-chloro-2,3-dihydro-benzo[1,4]dioxin-2-ylmethyl ester], for which the melting point lay within 113 to 116 °C.

`NS(=O)(=O)NC[C@H]1COc2ccccc2O1` [ID No. 4, (2S)-(−)-N-(2,3-Dihydro-benzo[1,4]dioxin-2-ylmethyl)-sulfamide]: in the data set with CF-1 male albino mice (300 mg/kg, @ 1 h), the “MES Activity: number of mice with full body tonic extension prevented/total number of mice tested” value was 5/5 @ 1 h (300 mg/kg).

Consider `CN(C)S(=O)(=O)NCC1COc2ccccc2O1` (stereo not shown) [ID No. 6, N-(2,3-Dihydro-benzo[1,4]dioxin-2-ylmethyl)-N′,N′ dimethylsulfamide], for which the melting point is 76 to 78 °C.

`CN(CC1COc2ccccc2O1)S(N)(=O)=O` (stereo not shown) [ID No. 7, N-(2,3-Dihydro-benzo[1,4]dioxin-2-ylmethyl)-N-methylsulfamide]: the melting point fell in the range of 97 to 98 °C.

Consider `NS(=O)(=O)NCC1CCc2ccccc2O1` (stereo not shown) [ID No. 10, Chroman-2-ylmethylsulfamide], for which the melting point is 100 to 101 °C.

In turn, `NS(=O)(=O)OCC1CCc2ccccc2O1` (stereo not shown) [ID No. 11, Chroman-2-ylmethylsulfamate] registered a melting point of 87 to 90 °C.

As for `NS(=O)(=O)NCCC1COc2ccccc2O1` (stereo not shown) [ID No. 16, 2-(2,3-Dihydro-benzo[1,4]dioxin-2-yl)-ethylsulfamide], the melting point was 101 to 103 °C. In the data set on CF-1 male albino mice (300 mg/kg, @ 0.5 h), the “MES Activity: number of mice with full body tonic extension prevented/total number of mice tested” value is reported as 5/5 @ 0.5 h (300 mg/kg).

Take `Cc1ccc2c(c1)O[C@@H](CNS(N)(=O)=O)CO2` [ID No. 19, (2S)-(−)-N-(7-Methyl-2,3-dihydro-benzo[1,4]dioxin-2-ylmethyl)-sulfamide]: the “MES Activity: number of mice with full body tonic extension prevented/total number of mice tested” value in the data set with CF-1 male albino mice (300 mg/kg, @ 0.5 h) is 5/5 @ 0.5 h (300 mg/kg).

In turn, `NS(=O)(=O)OC[C@H]1COc2cc(Cl)c(Cl)cc2O1` [ID No. 27, Sulfamic acid, 6.7 dichloro-2,3-dihydro-benzo[1,4]dioxin-2-ylmethyl ester] registered a melting point of 109 to 111 °C. For the same compound, the “MES Activity: number of mice with full body tonic extension prevented/total number of mice tested” value in the data set on CF-1 male albino mice (100 mg/kg, @ 4 h) was 5/5 @ 4 h (100 mg/kg).

In turn, `NS(=O)(=O)NC[C@H]1COc2cc(Cl)c(Cl)cc2O1` [ID No. 29, (2S)-(−)-N-(6,7 Dichloro-2,3-dihydro-benzo[1,4]dioxin-2-ylmethyl)-sulfamide] gave a melting point of 119 to 121 °C. Besides, the “MES Activity: number of mice with full body tonic extension prevented/total number of mice tested” value in the data set with CF-1 male albino mice (100 mg/kg, @ 4 h) is given as 3/5 @ 4 h (100 mg/kg).

Consider `Nc1ccc2c(c1)O[C@@H](CNS(N)(=O)=O)CO2` [ID No. 36, (2S)-(−)-N-(7-Amino-2,3-dihydro-benzo[1,4]dioxin-2-ylmethyl)-sulfamide], for which the “MES Activity (in words)” value was “Inactive @ 100 and 300 mg/kg” in the data set with CF-1 male albino mice (100 mg/kg); “Inactive @ 100 and 300 mg/kg” in the data set on CF-1 male albino mice (300 mg/kg).

Turning to `CC1(C)O[C@@H]2[C@@H](CO[C@@]3(COS(N)(=O)=O)OC(C)(C)O[C@@H]23)O1` [Topiramate], the carbonic anhydrase inhibition result with carbonic anhydrase is “single digit micromolar”.
